Source: patent publication US20060079453A1, “Hla binding peptides and their uses” (priority 2002, published 2006)
“And” between values parts separate entries of the source, which are not always exact repeats. Equal values may be shown once. Read-outs that look alike come from different tables or passages of the source. No end group written: not given here.

Legend:
Assay in all cases: biochemical
Assay type in all cases: binding
HLA-B*1801 = HLA-B*1801 (Homo sapiens, UniProt P01889, A329T/A93T/A95T/C349S/D201E/D54G/D98Y/E176V/E187T/E204Q/E69T/K202T/Q94N/R155S/R180L/S121R/V306I/Y140S/Y195H/Y33H/Y91S)
HLA-B*4001 = HLA-B*4001 (Homo sapiens, UniProt P01889, A65T/A93T/A95T/D138N/D98Y/E176V/E69K/N87E/Q56L/Q94N/R180L/S121R/S35A/S48T/T167S/V36M/W171L/Y33H/Y91S)
HLA-B*4002 = HLA-B*4002 (Homo sapiens, UniProt P01889, A65T/A93T/A95T/D138N/D201E/D98Y/E176V/E204Q/E69K/K202T/N87E/Q56L/Q94N/R180L/S48T/Y33H/Y91S)
HLA-B*4402 = HLA-B*4402 (Homo sapiens, UniProt P01889, A223V/A65T/A93T/A95T/D201E/D98Y/E176V/E187L/E204Q/E69K/G107R/H137Y/K202T/L105A/L119I/N104T/N87E/Q56L/Q94N/R106L/R155S/R180D/S101N/S121R/S35A/S48T/T118I/V36M/W191S/Y140D/Y91S)
HLA-B*4403 = HLA-B*4403 (Homo sapiens, UniProt P01889, A223V/A65T/A93T/A95T/D201E/D98Y/E176V/E187L/E204Q/E69K/G107R/H137Y/K202T/L105A/L119I/N104T/N87E/Q56L/Q94N/R106L/R155S/R180L/S101N/S121R/S35A/S48T/T118I/V36M/W191S/Y140D/Y91S)
HLA-B*4501 = HLA-B*4501 (Homo sapiens, UniProt P01889, A329T/A65T/A93T/A95T/C349S/D138N/D201E/D98Y/E176V/E187L/E204Q/E69K/H137Y/K202T/L119W/N87E/Q56L/Q94N/R155S/R180D/S121R/S35A/S48T/V127L/V306I/V36M/W191S/Y140L/Y33H/Y91S)
HLA-A*0101 = HLA-A*0101 (Homo sapiens, UniProt P04439, A114D/A174V/A182V/D101N/D185E/E176A/E190D/L180R/Q94H/R68K/S129P/T187R/V100A/V91M/W191G)
HLA-A*3002 = HLA-A*3002 (Homo sapiens, UniProt P04439, D101N/D140H/D185E/E176R/F33S/G80R/H175R/K168Q/Q94H/R138E/R41S/V100E)
[1] = Binding affinity to A*0101 (expressed as an IC50)
[2] = Binding affinity to A*3002 (expressed as an IC50)
[3] = read-out: Binding affinity to A*0101 (expressed as an IC50)

Work on FENLWVTVY yielded an IC50 (HLA-B*1801) of 59 nM, an IC50 (HLA-B*4001) of 943 nM and an IC50 (HLA-B*4002) of 1340 nM. For the same sequence, the IC50 (HLA-B*4402) was 4180 nM, the IC50 (HLA-B*4403) was 1310 nM and the IC50 (HLA-B*4501) was 21400 nM.
GEFGGYGSV gave an IC50 (HLA-B*4002; B*4002) of 6.4 nM, an IC50 (HLA-B*4402; B*4402) of 2340 nM and an IC50 (HLA-B*4403; B*4403) of 534 nM. For the same sequence, the IC50 (HLA-B*4501; B*4501) was 40 nM.
For GEFPYKAAA, the IC50 (HLA-B*4001; B*4001) was 170 nM, the IC50 (HLA-B*4002; B*4002) was 3.9 nM and the IC50 (HLA-B*4402; B*4402) was 746 nM. For the same sequence, the IC50 (HLA-B*4403; B*4403) was 2540 nM and the IC50 (HLA-B*4501; B*4501) was 11 nM.
In the case of GELSYLNV, the IC50 (HLA-B*1801; B*1801) is reported as > 24800 nM, the IC50 (HLA-B*4002; B*4002) is reported as 100 nM and the IC50 (HLA-B*4402; B*4402) is reported as 19000 nM. The IC50 (HLA-B*4403; B*4403) was 23700 nM and the IC50 (HLA-B*4501; B*4501) was 784 nM.
With HTDTPTLHEY the IC50 (HLA-A*0101; [1]) was 20 nM and 30 nM and the IC50 (HLA-A*3002) was 54 nM.
ISEYRHYQY showed an IC50 (HLA-A*0101; [1]) of 40 nM.
ITEYRHYQY gave an IC50 (HLA-A*0101; [1]) of 90 nM.
KEKGGLDGL was tested, and the IC50 (HLA-B*1801; B*1801) was > 22800 nM, the IC50 (HLA-B*4001; B*4001) was 55 nM and the IC50 (HLA-B*4402; B*4402) was > 81400 nM. The IC50 (HLA-B*4403; B*4403) was > 10500 nM and the IC50 (HLA-B*4501; B*4501) was 9930 nM.
For KEKGGLDGLI, the IC50 (HLA-B*1801; B*1801) was > 22800 nM, the IC50 (HLA-B*4002; B*4002) was 233 nM and the IC50 (HLA-B*4402; B*4402) was 14700 nM. The IC50 (HLA-B*4403; B*4403) was 3630 nM and the IC50 (HLA-B*4501; B*4501) was 9990 nM.
KTGPGPGHLY gave an IC50 (HLA-A*0101; [1]) of 29 nM and an IC50 (HLA-A*3002; [2]) of 1.3 nM.
In the case of KTYGPGPGLY, the IC50 (HLA-A*0101; [1]) is reported as 5.7 nM and the IC50 (HLA-A*3002; [2]) is reported as 0.96 nM.
With LDKGIKPY the IC50 (HLA-B*1801; B*1801) was > 100000 nM, the IC50 (HLA-B*4001; B*4001) was 17900 nM and the IC50 (HLA-B*4002; B*4002) was 468 nM. The IC50 (HLA-B*4402; B*4402) was > 43200 nM, the IC50 (HLA-B*4403; B*4403) was 19300 nM and the IC50 (HLA-B*4501; B*4501) was 23600 nM.
LDPYARVAI was tested, and the IC50 (HLA-B*1801) was > 24400 nM, the IC50 (HLA-B*4001) was > 88900 nM and the IC50 (HLA-B*4002) was 372 nM. The IC50 (HLA-B*4402) was > 41600 nM, the IC50 (HLA-B*4403) was > 39800 nM and the IC50 (HLA-B*4501) was > 49000 nM.
In the case of LEASISGKY, the IC50 (HLA-A*0101; [1]) is reported as 57800 nM and the IC50 (HLA-A*3002) is reported as 87 nM.
LSGPGPGAIFY was tested, and the IC50 (HLA-A*0101; [3]) was 25 nM.
LSLGPGPGFY was tested, and the IC50 (HLA-A*0101; [1]) was 21 nM and the IC50 (HLA-A*3002; [2]) was 8.2 nM.
MDIDPYKEF was tested, and the IC50 (HLA-B*1801; B*1801) was 169000 nM, the IC50 (HLA-B*4001; B*4001) was 3700 nM and the IC50 (HLA-B*4002; B*4002) was 382 nM. The IC50 (HLA-B*4402; B*4402) was 21700 nM, the IC50 (HLA-B*4403; B*4403) was 1950 nM and the IC50 (HLA-B*4501; B*4501) was 2610 nM.
Sequence NLALLYGEY has an IC50 (HLA-A*0101; [1]) of 275 nM and an IC50 (HLA-A*3002; [2]) of 102 nM.
Sequence NVDQQNIDMY has an IC50 (HLA-A*0101; [3]) of 47 nM.
In the case of PENLWVTVY, the IC50 (HLA-B*1801) is reported as 190 nM, the IC50 (HLA-B*4001) is reported as > 72700 nM and the IC50 (HLA-B*4002) is reported as > 155000 nM. The IC50 (HLA-B*4402) was > 167000 nM, the IC50 (HLA-B*4403) was > 425000 nM and the IC50 (HLA-B*4501) was > 49000 nM.
In the case of QEILDLWV, the IC50 (HLA-B*1801; B*1801) is reported as > 22800 nM, the IC50 (HLA-B*4002; B*4002) is reported as 1720 nM and the IC50 (HLA-B*4402; B*4402) is reported as > 81400 nM. For the same sequence, the IC50 (HLA-B*4403; B*4403) was 5920 nM and the IC50 (HLA-B*4501; B*4501) was 5500 nM.
For RERPDNYV, the IC50 (HLA-B*1801; read-out: B*1801) was > 73800 nM, the IC50 (HLA-B*4001; read-out: B*4001) was 71600 nM and the IC50 (HLA-B*4002; read-out: B*4002) was 62 nM. For the same sequence, the IC50 (HLA-B*4402; read-out: B*4402) was > 67600 nM, the IC50 (HLA-B*4403; read-out: B*4403) was > 34500 nM and the IC50 (HLA-B*4501; read-out: B*4501) was 34600 nM.
SEAIYTFQF was tested, and the IC50 (HLA-B*1801; B*1801) was 5.7 nM, the IC50 (HLA-B*4001; B*4001) was 967 nM and the IC50 (HLA-B*4402; B*4402) was 4.8 nM. The IC50 (HLA-B*4403; B*4403) was 20 nM and the IC50 (HLA-B*4501; B*4501) was 293 nM.
SEAPKYAIL gave an IC50 (HLA-B*1801; B*1801) of 2260 nM, an IC50 (HLA-B*4002; B*4002) of 7.8 nM and an IC50 (HLA-B*4402; B*4402) of 762 nM. For the same sequence, the IC50 (HLA-B*4403; B*4403) was 2260 nM and the IC50 (HLA-B*4501; B*4501) was 479 nM.
For SYQHFRIKLLL, the IC50 (HLA-A*0101; [3]) was > 83300 nM.
Sequence TLEGPGPGGLY has an IC50 (HLA-A*0101; [1]) of 11 nM and an IC50 (HLA-A*3002; [2]) of 40 nM.
For WVYHTQGYY, the IC50 (HLA-A*0101; [1]) was 703 nM and the IC50 (HLA-A*3002) was 5.6 nM.
YENLWVTVY gave an IC50 (HLA-B*1801) of 29 nM, an IC50 (HLA-B*4002) of 324 nM and an IC50 (HLA-B*4402) of 640 nM. The IC50 (HLA-B*4403) was 369 nM and the IC50 (HLA-B*4501) was 10700 nM.
